Series [1] has as its system P. tephropora. The conditions noted are these: Humphrey et al; cited from earlier work.
Series [2] has as its system G. abietinum. The conditions noted are these: Humphrey et al; cited from earlier work.
In series [3] the test system is Coniophora puteana. Briefly: decay of treated, leached radiata pine blocks (AWPA protocol). The format is cell-based. On the procedure: (§1) A more rigorous examination of the potential synergism of was carried out on leached wood blocks. Radiata pine blocks were cut to size (20×20×20 mm) and labeled according to treatment level. The blocks were then vacuum impregnated at
(§2) −95 kpa with the various treatments as specified in table 16. The aqueous or alcoholic carrier solvents were then allowed to air dry for a period of 5 days. The blocks were then subjected to leaching and biological attack in accordance with the AWPA's “Proctocols for assessment of Wood Preservatives.” The fungal species used were Tyromyces palustris, Coniophora puteana and Fomitopsis lilacino-gilva.
(§3) inhibition of growth by fungicide B at retention q. E is the expected additive inhibition of the two fungicides. If a greater inhibition occurs with the combined treatment than the two fungicides acting alone synergism is defined to be present.

Series [4] deals with Fomitopsis lilacino-gilva. The series is described as above. It counts as cell-based. On the procedure:
as §1, §2, §3

Series [5] has as its system Tyromyces palustris. The description is as above. It counts as cell-based. On the procedure: as §1, §2, §3
Series [6] concerns Antroda xantha. Briefly: malt agar plate growth inhibition, end point/MIC and Kull synergy. It counts as cell-based. The method, then: (§4) To this end an alcoholic aqueous solutions of decyl boratrane and didecyldimethyl ammonium chloride were prepared separately and in combination in a ratio of 3:1 Serial dilutions of the formulations of the respective fungicides and fungicide mixture were added to 3 replicate plates of malt agar under aseptic conditions. Three replicate control plates without fungicide were similarly prepared.
(§5) Onto each plate was placed 6 fungal inoculum squares measuring approximately 5×5 mm. […] The plates were then rated for growth inhibition and the results recorded.
(§6) The absence or presence of synergism may be calculated by the method of F. C. Kull et al., Applied Microbiology, Vol 9, (1961) p 538 et seq. The synergistic index (S.I.) is calculated according to the following formula.
(§7) In the present context the parameters in the formula have the following meaning:
(§8) Qa=The concentration of compound decyl isopropanolamine boratrane (compound A) in mixture which produces and end point. Qb=The concentration of compound didecyldimethyl ammonium chloride (compound B) in mixture which produces and end point. QA=The concentration of compound decyl isopropanolamine boratrane (compound A) alone which produces and end point. QB=The concentration of compound didecyldimethyl ammonium chloride (compound B) alone which produces and end point. QC=The concentration of the mixture of didecyldimethyl ammonium chloride and decyl isopropanolamine boratrane (compounds A+B) which together produces and end point.
(§9) If the synergistic index is above 1, this means that antagonism is present. If the synergistic index equals 1, this means that an additive effect of the two biocides exist. If the synergistic index is less than 1, this means that synergism of the two biocides exist.
(§10) To this end an alcoholic aqueous solution of decyl boratrane and didecyldimethyl ammonium chloride was formulated in a ratio of 3:1. In a separate formulation a micro-emulsion of triadimefon was prepared. Serial dilutions of the formulations of the respective fungicides were added to 3 replicate plates of malt agar under aseptic conditions and tested for synergism under the same conditions as example 7 at ratios of 10:1 and 20:1 boratrane didecyldimethyl ammonium chloride mixture to 1 of triadimefon.
(§11) The synergy experiment in Example 8 was repeated at two additional ratios of 5:1 and 50:1. The results are sumarised in tables 14 and 15.

For series [7], the system named is Fomitopsis lilacino-gilva. Described as above. The format is cell-based. The method, then:
as §4, §5, §6, §7, §8, §9, §10, §11

The test system of series [8] is Pycnoporus coccineus. The series is described as above. It counts as cell-based. The method, then:
as §4, §5, §6, §7, §8, §9, §10, §11

For series [9], the system named is Trametes versicolor. The series is described as above. The format is cell-based. On the procedure:
as §4, §5, §6, §7, §8, §9, §10, §11

The test system of series [10] is Tyromyces palustris. The series is described as above. It counts as cell-based. On the procedure:
as §4, §5, §6, §7, §8, §9, §10, §11

The conditions of series [11]: cited from earlier work.
Setting [12] is: Ex 7, Table 5 prints no unit (ppm in Tables 1-4).
The mark [13] stands for this setting: Ex 8, A=DIPB DDAC 3:1, B=triadimefon.
[14] abbreviates: Ex 9 repeat, A=DIPB DDAC 3:1, B=triadimefon.

Like-named read-outs stand apart in the source and are kept apart here.

For the molecule `CCCC[N+](CCCC)(CCCC)CCCC.c1ccc2c(c1)CO[B-]1(OCc3ccccc3O1)O2`, the “inhibition of the fungi” value in series [1] and in series [2] was “complete inhibition” in each case.

`OB(O)O` [Boric acid]: the Mass loss % in [3] (retention Boric acid 0.4% w) was 47.37%; in series [3] (retention Boric acid 0.8% w) it was 43.4%; in [4] (retention Boric acid 0.4% w), 32.91%; in series [4] (retention Boric acid 0.8% w), 30.6%; in [5] (retention Boric acid 0.4% w), 23.66%; in series [5] (retention Boric acid 0.8% w) it was 24.67%.

For `CCCCCCCCCC[N+](C)(C)CCCCCCCCCC.[Cl-]` [DDAC, didecyldimethyl ammonium chloride], the MIC in [6] is 256 µg/mL; in [7], 256 µg/mL; in series [8] (setting [12]), 2048; in series [9] (Trametes versicolor), more than 1020 µg/mL; in series [10], 1020 µg/mL. The “QB end point concentration, B alone” value in series [6] (Ex 7, A=DIPB, B=DDAC) is given as 256; in series [7] (Ex 7, A=DIPB, B=DDAC), 256; in series [8] (Ex 7, A=DIPB, B=DDAC), 2048; in series [9] (Ex 7, A=DIPB, B=DDAC), 2048; in series [10] (Ex 7, A=DIPB, B=DDAC) it was 1024.

For the molecule `CCCCCCCCCCC1C[N+]23CC(C)O[B-]2(OC(C)C3)O1` (stereo not drawn) [DIPB, 3,7-dimethyl-10-decyl-2,8,9-trioxa-5-aza-1-boratricyclo-[3.3.3.0]-undecane], the MIC came out at 256 ppm in series [6] (Ex 7); 2048 ppm in series [7] (Ex 7); 2048 in [8] (setting [12]); 256 ppm in series [9] (Ex 7); 1024 ppm in series [10] (Ex 7). Further, the “QA end point concentration, A alone” value was 256 in series [6] (Ex 7, A=DIPB, B=DDAC); 2048 in [7] (Ex 7, A=DIPB, B=DDAC); 256 in [8] (Ex 7, A=DIPB, B=DDAC); 2048 in series [9] (Ex 7, A=DIPB, B=DDAC); 1024 in series [10] (Ex 7, A=DIPB, B=DDAC). Also, the Mass loss % is recorded as 56.25% in [3] (retention 0.1% w b.a.e.); 47.62% in [3] (retention 0.2% w b.a.e.); 27.93% in series [3] (retention 0.4% w b.a.e); 4.64% in series [3] (retention 0.8% w b.a.e); 32.95% in series [4] (retention 0.1% w b.a.e.); 34.58% in series [4] (retention 0.2% w b.a.e.). Also, the Mass loss % in series [4] (retention 0.4% w b.a.e) is reported as 10.09%; in [4] (retention 0.8% w b.a.e), 0.29%; in series [5] (retention 0.1% w b.a.e.), 22.55%; in series [5] (retention 0.2% w b.a.e.) it was 26.55%; in series [5] (retention 0.4% w b.a.e), 21.33%; in series [5] (retention 0.8% w b.a.e) it was 0.86%. For the same molecule, in series [11] (analysis of the lap joints each year), the “rate of boron leaching” value is reported as “significantly lower than boric acid”. Further, the “efficacy compared to boric acid” value in series [11] (weather exposed lap joints) is reported as “superior efficacy”.

`CC(C)(C)C(=O)C(Oc1ccc(Cl)cc1)n1cncn1` (stereo not drawn) [Triadimefon]: the “QB end point concentration, B alone” value in series [6] (setting [13]) turned out to be 4; in series [6] (setting [14]) it was 4; in [7] (setting [13]), 4; in series [7] (setting [14]), 8; in series [8] (setting [13]) it was 128; in series [8] (setting [14]) it was 0.5. Moreover, the “QB end point concentration, B alone” value in series [9] (setting [13]) stood at 4; in series [9] (setting [14]) it was 4; in series [10] (setting [13]), 32; in series [10] (setting [14]) it was 16. Also, the MIC in [6] (Ex 8, read-out: MIC) was found to be 4 µg/mL; in [7] (Ex 8, read-out: MIC) it was 4 µg/mL; in series [8] (Trametes coccinea, Ex 8, read-out: MIC), 4 µg/mL; in series [9] (Trametes versicolor, Ex 8, read-out: MIC) it was 128 µg/mL; in series [10] (Ex 8, read-out: MIC), 32 µg/mL.

For “alkyldimethyl benzyl ammonium chloride [Benzalkonium Chloride 50%]”, the Mass loss % in [3] (retention ADBAC 0.16% w) came out at 60.59%; in [3] (retention ADBAC 0.33% w), 48.9%; in series [3] (retention ADBAC 0.66% w) it was 39.16%; in series [3] (retention ADBAC 1.33% w), 17.72%; in series [4] (retention ADBAC 0.16% w) it was 30.66%; in series [4] (retention ADBAC 0.33% w) it was 29.44%. Further, the Mass loss % in [4] (retention ADBAC 0.66% w) stood at 27.92%; in [4] (retention ADBAC 1.33% w) it was 4.27%; in series [5] (retention ADBAC 0.16% w) it was 21.68%; in series [5] (retention ADBAC 0.33% w) it was 25.03%; in series [5] (retention ADBAC 0.66% w), 23.72%; in series [5] (retention ADBAC 1.33% w), 12.61%.
